Source: ChEMBL document CHEMBL3421620, “A facile synthesis of novel miconazole analogues and the evaluation of their antifungal activity” (2015)
≈ marks a conversion by molar mass, not a printed value.

Columns and labels:
Format in all cases: functional
Candida albicans [1] = assay: Antifungal activity against Candida albicans Strain 10 by broth microdilution method
Candida albicans [2] = assay: Antifungal activity against Candida albicans Strain 11 by broth microdilution method
Candida albicans [3] = assay: Antifungal activity against Candida albicans Strain 12 by broth microdilution method
Candida albicans [4] = assay: Antifungal activity against Candida albicans Strain 13 by broth microdilution method
Candida albicans [5] = assay: Antifungal activity against Candida albicans Strain 14 by broth microdilution method
Candida albicans [6] = assay: Antifungal activity against Candida albicans Strain 15 by broth microdilution method
Candida albicans [7] = assay: Antifungal activity against Candida albicans Strain 16 by broth microdilution method
Candida albicans [8] = assay: Antifungal activity against Candida albicans Strain 17 by broth microdilution method
Candida albicans [9] = assay: Antifungal activity against Candida albicans Strain 18 by broth microdilution method
Candida albicans [10] = assay: Antifungal activity against Candida albicans Strain 19 by broth microdilution method
Candida albicans [11] = assay: Antifungal activity against Candida albicans Strain 20 by broth microdilution method
Candida albicans [12] = assay: Antifungal activity against Candida albicans Strain 21 by broth microdilution method
Candida albicans [13] = assay: Antifungal activity against Candida albicans Strain 22 by broth microdilution method
Candida albicans [14] = assay: Antifungal activity against Candida albicans Strain 23 by broth microdilution method
Candida albicans [15] = assay: Antifungal activity against Candida albicans Strain 24 by broth microdilution method
Candida albicans [16] = assay: Antifungal activity against Candida albicans Strain 25 by broth microdilution method
Candida albicans [17] = assay: Antifungal activity against Candida albicans Strain 26 by broth microdilution method
Candida albicans [18] = assay: Antifungal activity against Candida albicans Strain 27 by broth microdilution method
Candida albicans [19] = assay: Antifungal activity against Candida albicans Strain 28 by broth microdilution method
Candida albicans [20] = assay: Antifungal activity against Candida albicans Strain 29 by broth microdilution method
Candida albicans [21] = assay: Antifungal activity against Candida albicans ATCC 10231 by broth microdilution method
Candida tropicalis = assay: Antifungal activity against Candida tropicalis ATCC 13803 by broth microdilution method
Cyberlindnera jadinii = assay: Antifungal activity against Candida utilis ATCC 9226 by broth microdilution method; details: Williopsis jadinii
Yarrowia lipolytica = assay: Antifungal activity against Candida lipolytica by broth microdilution method
Kluyveromyces marxianus = assay: Antifungal activity against Candida pseudotropicalis by broth microdilution method
Pichia kudriavzevii = assay: Antifungal activity against Candida krusei by broth microdilution method
Candida parapsilosis = assay: Antifungal activity against Candida parapsilosis by broth microdilution method; details: Lodderomyces parapsilosis
Nakaseomyces glabratus = assay: Antifungal activity against Candida glabrata by broth microdilution method
Mucor hiemalis = assay: Antifungal activity against Mucor hiemalis ATCC 8690 by broth microdilution method
Aspergillus fumigatus = assay: Antifungal activity against Aspergillus fumigatus 16907 by broth microdilution method
[22] = Antifungal activity against Trichosporon cutaneum ATCC 28592 by broth microdilution method; details: Cutaneotrichosporon cutaneum
Rhizopus arrhizus = assay: Antifungal activity against Rhizopus oryzae ATCC 10329 by broth microdilution method
Candida albicans [23] = assay: Antifungal activity against Candida albicans Strain 1 by broth microdilution method
Candida albicans [24] = assay: Antifungal activity against Candida albicans Strain 2 by broth microdilution method
Candida albicans [25] = assay: Antifungal activity against Candida albicans Strain 3 by broth microdilution method
Candida albicans [26] = assay: Antifungal activity against Candida albicans Strain 4 by broth microdilution method
Candida albicans [27] = assay: Antifungal activity against Candida albicans Strain 5 by broth microdilution method
Candida albicans [28] = assay: Antifungal activity against Candida albicans Strain 6 by broth microdilution method
Candida albicans [29] = assay: Antifungal activity against Candida albicans Strain 7 by broth microdilution method
Candida albicans [30] = assay: Antifungal activity against Candida albicans Strain 8 by broth microdilution method
Candida albicans [31] = assay: Antifungal activity against Candida albicans Strain 9 by broth microdilution method

## CCC(C)n1ncn(-c2ccc(N3CCN(c4ccc(OCC5COC(Cn6cncn6)(c6ccc(Cl)cc6Cl)O5)cc4)CC3)cc2)c1=O (stereo not drawn) [ITRACONAZOLE]
Candida albicans [1]
  MIC: 0.06 µg/mL (≈ 0.085 µM)
Candida albicans [2]
  MIC: 0.06 µg/mL (≈ 0.085 µM)
Candida albicans [3]
  MIC: 0.12 µg/mL (≈ 0.17 µM)
Candida albicans [4]
  MIC: 0.06 µg/mL (≈ 0.085 µM)
Candida albicans [5]
  MIC: 0.06 µg/mL (≈ 0.085 µM)
Candida albicans [6]
  MIC: 0.06 µg/mL (≈ 0.085 µM)
Candida albicans [7]
  MIC: 0.06 µg/mL (≈ 0.085 µM)
Candida albicans [8]
  MIC: 0.12 µg/mL (≈ 0.17 µM)
Candida albicans [9]
  MIC: 0.03 µg/mL (≈ 0.0425 µM)
Candida albicans [10]
  MIC: 0.06 µg/mL (≈ 0.085 µM)
Candida albicans [11]
  MIC: 0.06 µg/mL (≈ 0.085 µM)
Candida albicans [12]
  MIC: 0.12 µg/mL (≈ 0.17 µM)
Candida albicans [13]
  MIC: 0.03 µg/mL (≈ 0.0425 µM)
Candida albicans [14]
  MIC: 0.06 µg/mL (≈ 0.085 µM)
Candida albicans [15]
  MIC: 0.03 µg/mL (≈ 0.0425 µM)
Candida albicans [16]
  MIC: 0.12 µg/mL (≈ 0.17 µM)
Candida albicans [17]
  MIC: 0.12 µg/mL (≈ 0.17 µM)
Candida albicans [18]
  MIC: 0.06 µg/mL (≈ 0.085 µM)
Candida albicans [19]
  MIC: 0.03 µg/mL (≈ 0.0425 µM)
Candida albicans [20]
  MIC: 0.12 µg/mL (≈ 0.17 µM)
Candida albicans [21]
  MIC: 0.06 µg/mL (≈ 0.085 µM)
Candida tropicalis
  MIC: 0.06 µg/mL (≈ 0.085 µM)
Cyberlindnera jadinii
  MIC: 0.5 µg/mL (≈ 0.709 µM)
Yarrowia lipolytica
  MIC: 0.12 µg/mL (≈ 0.17 µM)
Kluyveromyces marxianus
  MIC: 0.25 µg/mL (≈ 0.354 µM)
Pichia kudriavzevii
  MIC: 1 µg/mL (≈ 1.42 µM)
Candida parapsilosis
  MIC: 0.25 µg/mL (≈ 0.354 µM)
Nakaseomyces glabratus
  MIC: 0.25 µg/mL (≈ 0.354 µM)
Mucor hiemalis
  MIC: > 16 µg/mL
Aspergillus fumigatus
  MIC: 1 µg/mL (≈ 1.42 µM)
[22]
  MIC: 8 µg/mL (≈ 11.3 µM)
Rhizopus arrhizus
  MIC: > 16 µg/mL
Candida albicans [23]
  MIC: 0.06 µg/mL (≈ 0.085 µM)
Candida albicans [24]
  MIC: 0.06 µg/mL (≈ 0.085 µM)
Candida albicans [25]
  MIC: 0.03 µg/mL (≈ 0.0425 µM)
Candida albicans [26]
  MIC: 0.03 µg/mL (≈ 0.0425 µM)
Candida albicans [27]
  MIC: 0.06 µg/mL (≈ 0.085 µM)
Candida albicans [28]
  MIC: 0.06 µg/mL (≈ 0.085 µM)
Candida albicans [29]
  MIC: 0.06 µg/mL (≈ 0.085 µM)
Candida albicans [30]
  MIC: 0.03 µg/mL (≈ 0.0425 µM)
Candida albicans [31]
  MIC: 0.12 µg/mL (≈ 0.17 µM)

## COC(=O)c1ccc(COC(Cn2ccnc2)c2ccc(Cl)cc2Cl)cc1 (stereo not drawn)
Candida albicans [1]
  MIC: 0.12 µg/mL (≈ 0.296 µM)
Candida albicans [2]
  MIC: 0.12 µg/mL (≈ 0.296 µM)
Candida albicans [3]
  MIC: 0.12 µg/mL (≈ 0.296 µM)
Candida albicans [4]
  MIC: 0.06 µg/mL (≈ 0.148 µM)
Candida albicans [5]
  MIC: 0.06 µg/mL (≈ 0.148 µM)
Candida albicans [6]
  MIC: 0.12 µg/mL (≈ 0.296 µM)
Candida albicans [7]
  MIC: 0.12 µg/mL (≈ 0.296 µM)
Candida albicans [8]
  MIC: 0.12 µg/mL (≈ 0.296 µM)
Candida albicans [9]
  MIC: 0.06 µg/mL (≈ 0.148 µM)
Candida albicans [10]
  MIC: 0.12 µg/mL (≈ 0.296 µM)
Candida albicans [11]
  MIC: 0.12 µg/mL (≈ 0.296 µM)
Candida albicans [12]
  MIC: 0.12 µg/mL (≈ 0.296 µM)
Candida albicans [13]
  MIC: 0.06 µg/mL (≈ 0.148 µM)
Candida albicans [14]
  MIC: 0.06 µg/mL (≈ 0.148 µM)
Candida albicans [15]
  MIC: 0.12 µg/mL (≈ 0.296 µM)
Candida albicans [16]
  MIC: 0.12 µg/mL (≈ 0.296 µM)
Candida albicans [17]
  MIC: 0.12 µg/mL (≈ 0.296 µM)
Candida albicans [18]
  MIC: 0.06 µg/mL (≈ 0.148 µM)
Candida albicans [19]
  MIC: 0.12 µg/mL (≈ 0.296 µM)
Candida albicans [20]
  MIC: 0.25 µg/mL (≈ 0.617 µM)
Candida albicans [21]
  MIC: 0.06 µg/mL (≈ 0.148 µM)
Candida tropicalis
  MIC: 0.12 µg/mL (≈ 0.296 µM)
Cyberlindnera jadinii
  MIC: 0.25 µg/mL (≈ 0.617 µM)
Yarrowia lipolytica
  MIC: 0.12 µg/mL (≈ 0.296 µM)
Kluyveromyces marxianus
  MIC: 0.5 µg/mL (≈ 1.23 µM)
Pichia kudriavzevii
  MIC: 0.12 µg/mL (≈ 0.296 µM)
Candida parapsilosis
  MIC: 0.12 µg/mL (≈ 0.296 µM)
Nakaseomyces glabratus
  MIC: 0.25 µg/mL (≈ 0.617 µM)
Mucor hiemalis
  MIC: > 16 µg/mL
Aspergillus fumigatus
  MIC: 4 µg/mL (≈ 9.87 µM)
[22]
  MIC: 8 µg/mL (≈ 19.7 µM)
Rhizopus arrhizus
  MIC: > 16 µg/mL
Candida albicans [23]
  MIC: 0.12 µg/mL (≈ 0.296 µM)
Candida albicans [24]
  MIC: 0.12 µg/mL (≈ 0.296 µM)
Candida albicans [25]
  MIC: 0.12 µg/mL (≈ 0.296 µM)
Candida albicans [26]
  MIC: 0.12 µg/mL (≈ 0.296 µM)
Candida albicans [27]
  MIC: 0.12 µg/mL (≈ 0.296 µM)
Candida albicans [28]
  MIC: 0.06 µg/mL (≈ 0.148 µM)
Candida albicans [29]
  MIC: 0.12 µg/mL (≈ 0.296 µM)
Candida albicans [30]
  MIC: 0.12 µg/mL (≈ 0.296 µM)
Candida albicans [31]
  MIC: 0.25 µg/mL (≈ 0.617 µM)

## OCc1ccc(COC(Cn2ccnc2)c2ccc(Cl)cc2Cl)cc1 (stereo not drawn)
Candida albicans [1]
  MIC: 0.12 µg/mL (≈ 0.318 µM)
Candida albicans [2]
  MIC: 0.25 µg/mL (≈ 0.663 µM)
Candida albicans [3]
  MIC: 0.12 µg/mL (≈ 0.318 µM)
Candida albicans [4]
  MIC: 0.12 µg/mL (≈ 0.318 µM)
Candida albicans [5]
  MIC: 0.12 µg/mL (≈ 0.318 µM)
Candida albicans [6]
  MIC: 0.25 µg/mL (≈ 0.663 µM)
Candida albicans [7]
  MIC: 0.12 µg/mL (≈ 0.318 µM)
Candida albicans [8]
  MIC: 0.12 µg/mL (≈ 0.318 µM)
Candida albicans [9]
  MIC: 0.06 µg/mL (≈ 0.159 µM)
Candida albicans [10]
  MIC: 0.12 µg/mL (≈ 0.318 µM)
Candida albicans [11]
  MIC: 0.06 µg/mL (≈ 0.159 µM)
Candida albicans [12]
  MIC: 0.25 µg/mL (≈ 0.663 µM)
Candida albicans [13]
  MIC: 0.12 µg/mL (≈ 0.318 µM)
Candida albicans [14]
  MIC: 0.25 µg/mL (≈ 0.663 µM)
Candida albicans [15]
  MIC: 0.12 µg/mL (≈ 0.318 µM)
Candida albicans [16]
  MIC: 0.12 µg/mL (≈ 0.318 µM)
Candida albicans [17]
  MIC: 0.25 µg/mL (≈ 0.663 µM)
Candida albicans [18]
  MIC: 0.12 µg/mL (≈ 0.318 µM)
Candida albicans [19]
  MIC: 0.12 µg/mL (≈ 0.318 µM)
Candida albicans [20]
  MIC: 0.5 µg/mL (≈ 1.33 µM)
Candida albicans [21]
  MIC: 0.12 µg/mL (≈ 0.318 µM)
Candida tropicalis
  MIC: 0.5 µg/mL (≈ 1.33 µM)
Cyberlindnera jadinii
  MIC: 0.5 µg/mL (≈ 1.33 µM)
Yarrowia lipolytica
  MIC: 0.25 µg/mL (≈ 0.663 µM)
Kluyveromyces marxianus
  MIC: 0.5 µg/mL (≈ 1.33 µM)
Pichia kudriavzevii
  MIC: 1 µg/mL (≈ 2.65 µM)
Candida parapsilosis
  MIC: 1 µg/mL (≈ 2.65 µM)
Nakaseomyces glabratus
  MIC: 0.5 µg/mL (≈ 1.33 µM)
Mucor hiemalis
  MIC: > 16 µg/mL
Aspergillus fumigatus
  MIC: 4 µg/mL (≈ 10.6 µM)
[22]
  MIC: 16 µg/mL (≈ 42.4 µM)
Rhizopus arrhizus
  MIC: > 16 µg/mL
Candida albicans [23]
  MIC: 0.12 µg/mL (≈ 0.318 µM)
Candida albicans [24]
  MIC: 0.12 µg/mL (≈ 0.318 µM)
Candida albicans [25]
  MIC: 0.12 µg/mL (≈ 0.318 µM)
Candida albicans [26]
  MIC: 0.12 µg/mL (≈ 0.318 µM)
Candida albicans [27]
  MIC: 0.12 µg/mL (≈ 0.318 µM)
Candida albicans [28]
  MIC: 0.12 µg/mL (≈ 0.318 µM)
Candida albicans [29]
  MIC: 0.12 µg/mL (≈ 0.318 µM)
Candida albicans [30]
  MIC: 0.12 µg/mL (≈ 0.318 µM)
Candida albicans [31]
  MIC: 0.5 µg/mL (≈ 1.33 µM)
